Source: US9932331B2, “Phenyl tetrahydroisoquinoline compound substituted with heteroaryl” (TAISHO PHARMACEUTICAL CO., LTD, priority 2014, dated 2018)
pIC50: −log10 of the molar value. Counter-ions that a name gives are not always drawn.

Assays:
human NHE3 = biological target: T1, human NHE3 (Homo sapiens, UniProt P48764); test: NHE3 inhibition test (recovery of intracellular pH in cell line stably expressing human NHE3); type: cell-based; conditions: OK cells deficient in endogenous NHE stably expressing human NHE3; BCECF fluorescence, initial rate of pH recovery; read-out: human NHE3 inhibitory activity IC50
T1 sequence (P48764 26-834): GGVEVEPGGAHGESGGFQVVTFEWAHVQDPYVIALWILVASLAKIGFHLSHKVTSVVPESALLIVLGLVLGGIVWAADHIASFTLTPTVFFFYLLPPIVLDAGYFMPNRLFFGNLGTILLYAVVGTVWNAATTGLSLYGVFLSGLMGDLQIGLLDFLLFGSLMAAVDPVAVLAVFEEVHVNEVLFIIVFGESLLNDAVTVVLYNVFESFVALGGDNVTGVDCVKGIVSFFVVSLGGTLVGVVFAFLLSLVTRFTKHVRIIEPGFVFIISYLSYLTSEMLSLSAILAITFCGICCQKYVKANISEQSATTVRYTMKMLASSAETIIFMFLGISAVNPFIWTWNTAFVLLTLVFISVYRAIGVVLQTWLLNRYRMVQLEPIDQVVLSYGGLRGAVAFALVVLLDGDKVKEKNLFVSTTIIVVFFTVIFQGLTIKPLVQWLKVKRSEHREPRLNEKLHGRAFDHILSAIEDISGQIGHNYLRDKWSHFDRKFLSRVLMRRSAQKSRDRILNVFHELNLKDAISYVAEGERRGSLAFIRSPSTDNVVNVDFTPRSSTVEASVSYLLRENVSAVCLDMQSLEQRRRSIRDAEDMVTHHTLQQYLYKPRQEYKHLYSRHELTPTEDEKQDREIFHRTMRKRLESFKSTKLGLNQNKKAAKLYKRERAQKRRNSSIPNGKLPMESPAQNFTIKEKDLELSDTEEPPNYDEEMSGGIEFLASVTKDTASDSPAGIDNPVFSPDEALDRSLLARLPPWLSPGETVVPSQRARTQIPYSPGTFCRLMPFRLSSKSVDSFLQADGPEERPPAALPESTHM
How it was run: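 IC50 is the concentration halving the initial rate of Na-triggered intracellular pH recovery, tracked by BCECF fluorescence, in NH4Cl-acidified cells. Cells: NHE-deficient OK line stably transfected with human NHE3; compound added in Na-free pH 7.4 buffer.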

SD rat = test: 32P-phosphate oral loading test using SD rat (phosphorus absorption inhibitory effect); type: in vivo; conditions: SD male rats, plasma radioactivity 30 minutes after 32P-phosphate solution, vs control group
Experimental: Phosphorus Absorption Inhibitory Effect of the Compound of the Present Invention in ^32P-Phosphate Oral Loading Test Using SD Rat
8-week-old SD male rats (Japan SLC, Inc.) were used as laboratory animals. Each test compound was suspended or dissolved at a concentration of 0.2 mg/mL or 0.6 mg/mL in Japanese Pharmacopoeia water for injection (manufactured by Hikari Pharmaceutical Co., Ltd.) and orally administered to each rat at a dose of 5 ml/kg body weight. Japanese Pharmacopoeia water for injection was administered at the same dose as above to a control group. 5 minutes after the administration of the test compound or water for injection, a phosphate solution (1.3 mM NaH2PO4) containing 32P-phosphate (PerkinElmer Inc.) was administered thereto at a dose of 5 ml/kg. 30 minutes after the administration of the phosphate solution, blood was collected from the tail vein, and the blood sample was immediately mixed with EDTA-2K (manufactured by Dojindo Laboratories). Then, the mixture was centrifuged at 3000 rpm at 4° C. for 10 minutes to recover plasma.
The radioactivity in 100 μL of the plasma was measured using a liquid scintillation counter and used as a phosphate absorption count. The radioactivity in the plasma of the control group was used as a control, and the rate of inhibition of phosphate absorption was determined according to the following expression: Rate of inhibition of phosphate absorption (%)=(1−Phosphate absorption count of the test compound administration group/Phosphate absorption count of the control group)×100 (2) Results

[1] = Rattus norvegicus, 0.5 h, oral dose 3 mg/kg, read-out: Rate of inhibition of phosphate absorption

Row | SMILES | pIC50 (human NHE3) | Rate of inhibition of phosphate absorption (SD rat; oral dose 1 mg/kg) [%] | inhibition in vivo at 3 mg/kg (SD rat; [1]) [%] | Rate of inhibition of phosphate absorption (SD rat; oral dose 3 mg/kg) [%] | inhibition in vivo at 1 mg/kg (SD rat; Rattus norvegicus, 0.5 h, oral dose 1 mg/kg, read-out: Rate of inhibition of phosphate absorption) [%]
1 | CN1Cc2c(Cl)cc(Cl)cc2[C@H](c2cccc(-c3cn(CCOCCOCCOCCOCCOCCNC(=O)NCCCCNC(=O)NCCOCCOCCOCCOCCOCCn4cc(-c5cccc([C@@H]6CN(C)Cc7c(Cl)cc(Cl)cc76)c5)nn4)nn3)c2)C1.Cl [Example 7-39, 1,1′-Butane-1,4-diylbis {3-[17-(4-{3-[(4S)-6,8-dichloro-2-methyl-1,2,3,4-tetrahydroisoquinolin-4-yl]phenyl}-1H-1,2,3-triazol-1-yl)-3,6,9,12,15-pentaoxaheptadec-1-yl]urea}hydrochloride] | 8.49 | 38 | – | – | –
2 | CN1Cc2c(Cl)cc(Cl)cc2[C@H](c2cccc(-c3cc(NCCOCCOCCOCCNC(=O)NCCCCNC(=O)NCCOCCOCCOCCNc4cc(-c5cccc([C@@H]6CN(C)Cc7c(Cl)cc(Cl)cc76)c5)ncn4)ncn3)c2)C1 [Example 7-40, 1,1′-Butane-1,4-diylbis(3-{2-[2-(2-{2-[(6-{3-[(4S)-6,8-dichloro-2-methyl-1,2,3,4-tetrahydroisoquinolin-4-yl]phenyl}pyrimidin-4-yl)amino]ethoxy}ethoxy)ethoxy]ethyl}urea) trifluoroacetate] | 7.96 | – | 28 | – | –
3 | CN1Cc2c(Cl)cc(Cl)cc2[C@H](c2cccc(-c3cn(CCOCCOCCOCCNC(=O)NCCN(CCCCN(CCNC(=O)NCCOCCOCCOCCn4cc(-c5cccc([C@@H]6CN(C)Cc7c(Cl)cc(Cl)cc76)c5)nn4)C(N)=O)C(N)=O)nn3)c2)C1.O=CO [Example 7-42, 3,3′-Butane-1,4-diylbis {3-[16-(4-{3-[(4S)-6,8-dichloro-2-methyl-1,2,3,4-tetrahydroisoquinolin-4-yl]phenyl}-1H-1,2,3-triazol-1-yl)-4-oxo-8,11,14-trioxa-3,5-diazahexadec-1-yl]urea}formate] | 8.26 | – | – | 29 | –
4 | CN1Cc2c(Cl)cc(Cl)cc2[C@H](c2cccc(-c3cn(CCOCCOCCOCCOCCNC(=O)NCCOCCOCCOCCOCCn4cc(-c5cccc([C@@H]6CN(C)Cc7c(Cl)cc(Cl)cc76)c5)nn4)nn3)c2)C1 [Example 7-43, 1,3-Bis[14-(4-{3-[(4S)-6,8-dichloro-2-methyl-1,2,3,4-tetrahydroisoquinolin-4-yl]phenyl}-1H-1,2,3-triazol-1-yl)-3,6,9,12-tetraoxatetradec-1-yl]urea hydrochloride] | 8.07 | – | 37 | – | –
5 | CN1Cc2c(Cl)cc(Cl)cc2[C@H](c2cccc(-c3cn(CCOCCOCCOCCOCCNC(=O)Nc4ccc(NC(=O)NCCOCCOCCOCCOCCn5cc(-c6cccc([C@@H]7CN(C)Cc8c(Cl)cc(Cl)cc87)c6)nn5)cc4)nn3)c2)C1 [Example 7-45, 1,1′-Benzene-1,4-diylbis {3-[14-(4-{3-[(4S)-6,8-dichloro-2-methyl-1,2,3,4-tetrahydroisoquinolin-4-yl]phenyl}-1H-1,2,3-triazol-1-yl)-3,6,9,12-tetraoxatetradec-1-yl]urea}hydrochloride] | 8.24 | – | 29 | – | –
6 | CN1Cc2c(Cl)cc(Cl)cc2[C@H](c2cccc(-c3cn(CCOCCOCCOCCOCCOCCNC(=O)Nc4ccc(NC(=O)NCCOCCOCCOCCOCCOCCn5cc(-c6cccc([C@@H]7CN(C)Cc8c(Cl)cc(Cl)cc87)c6)nn5)cc4)nn3)c2)C1 [Example 7-46, 1,1′-Benzene-1,4-diylbis {3-[17-(4-{3-[(4S)-6,8-dichloro-2-methyl-1,2,3,4-tetrahydroisoquinolin-4-yl]phenyl}-1H-1,2,3-triazol-1-yl)-3,6,9,12,15-pentaoxaheptadec-1-yl]urea}hydrochloride] | 7.96 | – | 23 | – | –

Further lines, with some results ahead:

Row | pIC50 (human NHE3) | SMILES | Rate of inhibition of phosphate absorption (SD rat; oral dose 1 mg/kg) [%] | inhibition in vivo at 3 mg/kg (SD rat; [1]) [%] | Rate of inhibition of phosphate absorption (SD rat; oral dose 3 mg/kg) [%] | inhibition in vivo at 1 mg/kg (SD rat; Rattus norvegicus, 0.5 h, oral dose 1 mg/kg, read-out: Rate of inhibition of phosphate absorption) [%]
7 | 7.81 | CN1Cc2c(Cl)cc(Cl)cc2[C@H](c2cccc(-c3cncc(NCCOCCOCCNC(=O)CCC(=O)NCCOCCOCCNc4cncc(-c5cccc([C@@H]6CN(C)Cc7c(Cl)cc(Cl)cc76)c5)n4)n3)c2)C1 [Example 8-6, N,N′-Bis[2-(2-{2-[(6-{3-[(4S)-6,8-dichloro-2-methyl-1,2,3,4-tetrahydroisoquinolin-4-yl]phenyl}pyrazin-2-yl)amino]ethoxy}ethoxy)ethyl]butanediamide pentahydrochloride] | – | 26 | – | –
8 | 8.21 | CN1Cc2c(Cl)cc(Cl)cc2[C@H](c2cccc(-c3cc(NCCOCCOCCNC(=O)[C@H](O)[C@@H](O)C(=O)NCCOCCOCCNc4cc(-c5cccc([C@@H]6CN(C)Cc7c(Cl)cc(Cl)cc76)c5)ncn4)ncn3)c2)C1 [Example 8-8, (2R,3R)-N,N′-Bis[2-(2-{2-[(6-{3-[(4S)-6,8-dichloro-2-methyl-1,2,3,4-tetrahydroisoquinolin-4-yl]phenyl}pyrimidin-4-yl)amino]ethoxy}ethoxy)ethyl]-2,3-dihydroxybutanediamide hydrochloride] | – | 39 | – | –
9 | 8.21 | CN1Cc2c(Cl)cc(Cl)cc2[C@H](c2cccc(-c3cc(NCCOCCOCCOCCNC(=O)CCC(=O)NCCOCCOCCOCCNc4cc(-c5cccc([C@@H]6CN(C)Cc7c(Cl)cc(Cl)cc76)c5)ncn4)ncn3)c2)C1 [Example 8-12, N,N′-Bis{2-[2-(2-{2-[(6-{3-[(4S)-6,8-dichloro-2-methyl-1,2,3,4-tetrahydroisoquinolin-4-yl]phenyl}pyrimidin-4-yl)amino]ethoxy}ethoxy)ethoxy]ethyl}butanediamide hydrochloride] | – | 6 | – | –
10 | 8.04 | CN1Cc2c(Cl)cc(Cl)cc2C(c2cccc(-c3cnnc(NCCOCCOCCNC(=O)C(O)C(O)C(=O)NCCOCCOCCNc4cc(-c5cccc(C6CN(C)Cc7c(Cl)cc(Cl)cc76)c5)cnn4)c3)c2)C1 [Example 8-14, (2R,3R)-N-[2-(2-{2-[(5-{3-[(4R)-6,8-Dichloro-2-methyl-1,2,3,4-tetrahydroisoquinolin-4-yl]phenyl}pyridazin-3-yl)amino]ethoxy}ethoxy)ethyl]-N′-[2-(2-{2-[(5-{3-[(4S)-6,8-dichloro-2-methyl-1,2,3,4-tetrahydroisoquinolin-4-yl]phenyl}pyridazin-3-yl)amino]ethoxy}ethoxy)ethyl]-2,3-dihydroxybutanamide tetrahydrochloride] | – | – | – | 46
11 | 8.12 | CN1Cc2c(Cl)cc(Cl)cc2[C@H](c2cccc(-c3cc(OCCOCCOCCNC(=O)[C@H](O)[C@@H](O)C(=O)NCCOCCOCCOc4cc(-c5cccc([C@@H]6CN(C)Cc7c(Cl)cc(Cl)cc76)c5)ncn4)ncn3)c2)C1 [Example 8-16, (2R,3R)-N,N′-Bis[2-(2-{2-[(6-{3-[(4S)-6,8-dichloro-2-methyl-1,2,3,4-tetrahydroisoquinolin-4-yl]phenyl}pyrimidin-4-yl)oxy]ethoxy}ethoxy)ethyl]-2,3-dihydroxybutanediamide hydrochloride] | – | 31 | – | –
12 | 8.60 | CN1Cc2c(Cl)cc(Cl)cc2[C@H](c2cccc(-c3cc(OCCOCCOCCOCCNC(=O)[C@H](O)[C@@H](O)C(=O)NCCOCCOCCOCCOc4cc(-c5cccc([C@@H]6CN(C)Cc7c(Cl)cc(Cl)cc76)c5)ncn4)ncn3)c2)C1 [Example 8-17, (2R,3R)-N,N′-Bis{2-[2-(2-{2-[(6-{3-[(4S)-6,8-dichloro-2-methyl-1,2,3,4-tetrahydroisoquinolin-4-yl]phenyl}pyrimidin-4-yl)oxy]ethoxy}ethoxy)ethoxy]ethyl}-2,3-dihydroxybutanediamide hydrochloride] | – | 18 | – | –
